# Data from patent publication US6242494A, “Substituted β-amino acid inhibitors of methionine aminopeptidase-2” (Abbott Laboratories, priority 1999, dated 2001).
# Counter-ions that a name gives are not always drawn.
# Target: T1, methionine aminopeptidase-2 (MetAP2) (Homo sapiens, UniProt P50579)
# T1 construct: made in house; host or cells: insect cells, baculovirus system (secreted, purified from culture supernatant)
# Test: Inhibition of MetAP2 enzyme activity (96-well, Met-Ala-Ser substrate, L-amino acid oxidase/peroxidase/ortho-dianisidine, 450 nm)
# Assay type: biochemical
# Conditions: IC50, recombinant MetAP2 4 μg/mL, pH 7.4, Met-Ala-Ser substrate, 20 minutes
# T1 sequence (P50579 whole entry): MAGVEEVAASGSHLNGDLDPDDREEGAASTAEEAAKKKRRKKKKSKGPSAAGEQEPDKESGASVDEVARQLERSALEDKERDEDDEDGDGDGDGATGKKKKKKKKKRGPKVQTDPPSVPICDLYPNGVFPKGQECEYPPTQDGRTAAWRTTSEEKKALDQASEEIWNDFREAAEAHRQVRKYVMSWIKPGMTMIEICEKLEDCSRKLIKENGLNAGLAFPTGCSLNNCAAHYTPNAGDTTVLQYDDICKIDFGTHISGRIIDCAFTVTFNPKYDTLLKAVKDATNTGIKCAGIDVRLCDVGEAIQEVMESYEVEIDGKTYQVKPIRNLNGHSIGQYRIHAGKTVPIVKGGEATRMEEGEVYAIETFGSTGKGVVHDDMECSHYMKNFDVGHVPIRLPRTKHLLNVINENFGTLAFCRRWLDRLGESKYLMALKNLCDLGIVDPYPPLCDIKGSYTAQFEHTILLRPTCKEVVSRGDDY
row,SMILES,IC50 [µM]
1,"C[C@H](NC(=O)C(O)[C@H](N)CC1CCCCC1)C(=O)Nc1ncc(Br)s1 (stereo partly drawn) [Example 70, ((2RS,3R)-3-amino-2-hydroxy-4-cyclohexyl)butanoyl-L-alanyl-(5-bromothizole-2)amide hydrochloride]",5.4
2,"C[C@H](NC(=O)C(O)[C@H](N)CC1CCCCC1)C(=O)Nc1ccc([N+](=O)[O-])cc1O (stereo partly drawn) [Example 71, ((2RS,3R)-3-amino-2-hydroxy-4-cyclohexyl)butanoyl-L-alanyl-(4-nitro-2-hydroxyphen-1-yl)amide hydrochloride]",12
3,"CCn1nccc1NC(=O)[C@H](C)NC(=O)C(O)[C@H](N)CC1CCCCC1 (stereo partly drawn) [Example 72, ((2RS,3R)-3-amino-2-hydroxy-4-cyclohexyl)butanoylL-alanyl-(1-ethylpyrazole)amide hydrochloride]",9.2
4,"CCOC(=O)C1CCN(C(=O)C(O)[C@H](N)CC2CCCCC2)CC1 (stereo partly drawn) [Example 73, ((2RS,3R)-3-amino-2hydroxy-4-cyclohexyl)butanoyl-(ethylisonipecotate)amide hydrochloride]",6.8
5,"N[C@H](CC1CCCCC1)C(O)C(=O)NCCCn1ccnc1 (stereo partly drawn) [Example 74, ((2RS,3R)-3-amino-2-hydroxy-4-cyclohexyl)butanoyl-(3-imidazolylpropyl)amidedihydrochloride]",30
6,"C[C@H](NC(=O)C(O)[C@H](N)CC1CCCCC1)c1nc(C(=O)O)cs1 (stereo partly drawn) [Example 75, (2RS,3R)-3-amino-2-hydroxy-4-cyclohexyl)butanoyl-(4-carboxyl-2-(1'amino)ethyl thizole hydrochloride]",9.4
7,"N[C@H](CC1CCCCC1)C(O)C(=O)NCCCCNC(=O)OCc1ccccc1 (stereo partly drawn) [Example 77, (2RS,3R)-3-amino-2-hydroxy-4-cyclohexyl)butanoyl-(4-benzloxycarbonylamino)butylamide hydrochloride]",3.3
8,"N[C@H](CC1CCCCC1)C(O)C(=O)NCCNC(=O)OCc1ccccc1 (stereo partly drawn) [Example 78, hydrochloride]",1.8
9,"CCSCC[C@@H](N)C(O)C(=O)NCCCCCNS(=O)(=O)c1cccc2c(N(C)C)cccc12 (stereo partly drawn) [Example 79, dihydrochloride]",0.1
10,"Cc1ccc(S(=O)(=O)NCCCCNC(=O)C(O)[C@H](N)CC2CCCCC2)cc1 (stereo partly drawn) [Example 80, (2RS,3R)-3-amino-2-hydroxy-4-cyclohexyl)butanoyl-(4-(4-toluenesulfonyl)aminobutyl)amide hydrochloride]",1.3
11,"Cc1ccc(S(=O)(=O)NCCNC(=O)C(O)[C@H](N)CC2CCCCC2)cc1 (stereo partly drawn) [Example 81, (2RS,3R)-3-amino-2-hydroxy-4-cyclohexyl)butanoyl-(2-4-toluenesulfonylaminoethyl)amide hydrochloride]",1.8
12,"NCCCCNC(=O)C(O)[C@H](N)CC1CCCCC1 (stereo partly drawn) [Example 82, (2RS,3R)-3-amino-2-hydroxy-4-cyclohexyl)butanoyl-(4-aminobutyl)amide dihydrochloride]",38
13,"NCCNC(=O)C(O)[C@H](N)CC1CCCCC1 (stereo partly drawn) [Example 83, (2RS,3R)-3-amino-2-hydroxy-4-cyclohexyl)butanoyl-(2-aminoethyl)amide dihydrochloride]",26
14,"CC(=O)Nc1ccc(S(=O)(=O)NCCCCNC(=O)C(O)[C@H](N)CC2CCCCC2)cc1 (stereo partly drawn) [Example 86, (2RS,3R)-N-(4-(((4-(acetylamiono)phenyl)sulfonyl)amino)butyl)-3-amino-4-cyclohexyl-2-hydroxybutanamide hydrochloride]",1.7
15,"N[C@H](CC1CCCCC1)C(O)C(=O)NCCc1ccc(S(N)(=O)=O)cc1 (stereo partly drawn) [Example 88, (2RS,3R)-3-amino-2-hydroxy-4-cyclohexyl)butanoyl-L-alanine-4-sulfonamide benzyl ester hydrochloride]",2.2
16,"CC(C)(NC(=O)C(O)[C@H](N)CC1CCCCC1)C(=O)OCc1ccccc1 (stereo partly drawn) [Example 89, Hydrochloride]",6.6
17,"C[C@H](NC(=O)C(O)[C@H](N)CC1CCCCC1)C(=O)OC1CCCCC1 (stereo partly drawn) [Example 90, (2RS,3R)-3-Amino-2-hydroxy-4-cyclohexyl)butanoyl-L-alanine Cyclohexyl Ester Hydrochloride]",2.3
18,"C[C@H](NC(=O)C(O)[C@H](N)CC1CCCCC1)C(=O)OCc1ccccc1CS(=O)(=O)c1ccccc1 (stereo partly drawn) [Example 91, (2RS,3R)-3-Amino-2-hydroxy-4-cyclohexyl)butanoyl-L-alanine-2-((phenylsulfonyl)methyl)benzyl Ester Hydrochloride]",2.3
19,"C[C@H](NC(=O)C(O)[C@H](N)CC1CCCCC1)C(=O)OCc1ccc(C(C)(C)C)cc1 (stereo partly drawn) [Example 93, (2RS,3R)-3-Amino-2-hydroxy-4-cyclohexyl)butanoyl-L-alanine 4-tert-butylbenzyl Ester Hydrochloride]",5.4

row,SMILES,IC50 [µM]
1,"COC(=O)c1ccc(COC(=O)[C@H](C)NC(=O)C(O)[C@H](N)CC2CCCCC2)cc1 (stereo partly drawn) [Example 94, (2RS,3R)-3-Amino-2-hydroxy-4-cyclohexyl)butanoyl-L-alanine 4-methoxycarbonylbenzyl Ester Hydrochloride]",0.91
2,"C[C@H](NC(=O)C(O)[C@H](N)CC1CCCCC1)C(=O)OCc1ccc(C(F)(F)F)cc1 (stereo partly drawn) [Example 95, (2RS,3R)-3-Amino-2-hydroxy-4-cyclohexyl)butanoyl-L-alanine 4-trifluoromethylbenzyl Ester Hydrochloride]",5.2
3,"C[C@H](NC(=O)C(O)[C@H](N)CC1CCCCC1)C(=O)OCc1ccc(CC(=O)OCC(=O)c2ccccc2)cc1 (stereo partly drawn) [Example 96, (2RS,3R)-3-Amino-2-hydroxy-4-cyclohexyl)butanoyl-L-alanine-(4-(methyl)phenyl Acetic Acid Phenacyl Ester) Hydrochloride]",2.9
4,"N[C@H](CC1CCCCC1)C(O)C(=O)NCc1ccc(Cl)cc1Cl (stereo partly drawn) [Example 97, (2RS,3R)-3-Amino-4-cyclohexyl)-N-(2,4-dichlorobenzyl)-2-hydroxybutanamide Hydrochloride]",3
5,"CC(NC(=O)C(O)[C@H](N)CC1CCCCC1)c1cccc2ccccc12 (stereo partly drawn) [Example 101, (2RS,3R,1'RS)-3-Amino-4-cyclohexyl-2-hydroxy-N-(1-(1-naphthyl)ethyl)butanamide Hydrochloride]",0.31
6,"C[C@H](NC(=O)C(O)[C@H](N)Cc1ccccc1)C(=O)OCc1ccccc1 (stereo partly drawn) [Example 105, Hydrochloride]",19
7,"CCOC(=O)[C@H](CF)NC(=O)C(O)[C@H](N)CC1CCCCC1 (stereo partly drawn) [Example 135, ethyl (2RS,3R,2'R)-2-((3-amino-4-cyclohexyl-2-hydroxybutanoyl)amino)-3-fluoropropanoate trifluoroacetate]",3.2
8,"CC(C)(C)c1ccc(COC(=O)[C@@H](CO)NC(=O)C(O)[C@H](N)CC2CCCCC2)cc1 (stereo partly drawn) [Example 137, 4-(tert-butyl)benzyl (2RS,3R,2'R)-2-((3-amino-4-cyclohexyl-2-hydroxybutanoyl)amino-3-hydroxypropanoate trifluoroacetate]",8.4
9,"N[C@H](CC1CCCCC1)C(O)C(=O)N[C@@H](CO)C(=O)OCc1ccc([N+](=O)[O-])cc1 (stereo partly drawn) [Example 138, 4-nitrobenzyl (2RS,3R,2'S)-2-((3-amino-4-cyclohexyl-2-hydroxybutanoyl)amino-3-hydroxypropanoate trifluoroacetate]",1.6
10,"N[C@H](CC1CCCCC1)C(O)C(=O)N[C@@H](CO)C(=O)OCc1cccc([N+](=O)[O-])c1 (stereo partly drawn) [Example 139, 3-nitrobenzyl (2RS,3R,2'S)-2-((3-amino-4-cyclohexyl-2-hydroxybutanoyl)amino)-3-hydroxypropanoate trifluoroacetate]",1.7
11,"N[C@H](CC1CCCCC1)C(O)C(=O)N[C@@H](CO)C(=O)OCc1ccc(C(F)(F)F)cc1 (stereo partly drawn) [Example 140, 4-(trifluoromethyl)benzyl (2RS,3R,2'S)-2-((3-amino-4-cyclohexyl-2-hydroxybutanoyl)amino)-3-hydroxypropanoate trifluoroacetate]",2.2
12,"N[C@H](CC1CCCCC1)C(O)C(=O)N[C@@H](CO)C(=O)OCc1cccc(OC(F)(F)F)c1 (stereo partly drawn) [Example 141, 3-(trifluoromethoxy)benzyl (2RS,3R,2'S)-2-((3-amino-4-cyclohexyl-2-hydroxybutanoyl)amino)-3-hydropropanoate trifluoroacetate]",3.7
13,CC(C)(C)c1ccc(NC(=O)C(O)[C@H](N)CC2CCCCC2)cc1 (stereo partly drawn) [Example 150],3.1
14,"CC(C)(C)c1ccc(CNC(=O)C(O)[C@H](N)CC2CCCCC2)cc1 (stereo partly drawn) [Example 156, (2RS,3R)-3-amino-N-(4-tert-butyl)benzyl-4-cyclohexyl-2-hydroxybutanamide]",3.9
15,N[C@H](CC1CCCCC1)C(O)C(=O)NCc1cccc(C(F)(F)F)c1 (stereo partly drawn) [Example 157],1.6
16,"N[C@H](CC1CCCCC1)C(O)C(=O)NCCc1c(Cl)cccc1Cl (stereo partly drawn) [Example 165, (2RS,3R)-3-amino-4-cyclohexyl-N-(2,6-dichlorophenethyl)-2-hydroxybutanamidehydrochloride]",0.26
17,"N[C@H](CC1CCCCC1)C(O)C(=O)Nc1ccccc1OC(F)(F)F (stereo partly drawn) [Example 169, (2RS,3R)-3-amino-4-cyclohexyl-2-hydroxy-N-(2-(trifluoromethoxy)phenyl)butanamide hydrochlordie]",3.3
18,"CC(C)CCCC(C)NC(=O)C(O)[C@H](N)CC1CCCCC1 (stereo partly drawn) [Example 211, (2RS,3R)-3-amino-4-cyclohexyl-N-(1.5-dimethylhexyl)-2-hydroxybutanamide Hydrochloride]",2.4
19,"N[C@H](CC1CCCCC1)C(O)C(=O)NCc1cccc2ccccc12 (stereo partly drawn) [Example 235, (2RS,3R)-3-amino-4-cyclohexyl-2-hydroxy-N-(1-napthylmethyl)butanamide Hydrochloride]",0.97

# Same assay, conditions: recombinant MetAP2 4 μg/mL, pH 7.4, Met-Ala-Ser substrate, 20 minutes
row,SMILES,IC50 [µM]
1,"CCCC[C@H](NC(=O)C(O)[C@H](N)CC1CCCCC1)C(=O)OC (stereo partly drawn) [Example 129, methyl (2RS,3R,2'S)-2-((3-amino-4-cyclohexyl-2-hydroxybutanoyl)amino)hexanoate hydrochloride]",27
